In ChEMBL document CHEMBL5038615, “Discovery of a cinnamyl piperidine derivative as new neddylation inhibitor for gastric cancer treatment” (Eur J Med Chem, 2021):
Active and inactive are the calls of the source. The rule behind the calls is not given here.

Assays:
MGC-803 [1] = test: Cell cycle arrest in human MGC-803 cells assessed as accumulation of cells at G0/G1 phase at 2.5 uM measured after 24 hrs by Flowcytometry assay (reference value: 46.01%); assay type: functional
MGC-803 [2] = test: Induction of apoptosis in human MGC-803 cells assessed as reduction of mitochondrial membrane potential at 7.5 uM measured after 24 hrs by JC-1 staining based Flowcytometry assay (reference value: 3.8%); assay type: functional; design: scale not given: the % may be the effect or the level left
MGC-803 [3] = test: Induction of apoptosis in human MGC-803 cells assessed as late apoptotic cells at 5 uM measured after 48 hrs by AnnexinV/FITC staining based flow cytometry method (reference value: 0.9%); assay type: functional
MGC-803 [4] = test: Induction of apoptosis in human MGC-803 cells assessed as early apoptotic cells at 7.5 uM measured after 24 hrs by AnnexinV/FITC staining based flow cytometry method (reference value: 1.3%); assay type: functional
MGC-803 [5] = test: Cell cycle arrest in human MGC-803 cells assessed as accumulation of cells at G0/G1 phase at 5 uM measured after 24 hrs by Flowcytometry assay (reference value: 46.01%); assay type: functional
HGC-27 [6] = test: Induction of apoptosis in human HGC-27 cells assessed as necrotic cells at 9 uM measured after 48 hrs by AnnexinV/FITC staining based flow cytometry method (reference value: 0.1%); assay type: functional
HGC-27 [7] = test: Induction of apoptosis in human HGC-27 cells assessed as early apoptotic cells at 6 uM measured after 24 hrs by AnnexinV/FITC staining based flow cytometry method (reference value: 0.7%); assay type: functional
HGC-27 [8] = test: Induction of apoptosis in human HGC-27 cells assessed as late apoptotic cells at 3 uM measured after 24 hrs by AnnexinV/FITC staining based flow cytometry method (reference value: 2.4%); assay type: functional
HGC-27 [9] = test: Induction of apoptosis in human HGC-27 cells assessed as downregulation of Bcl-2 at 3 to 9 uM measured after 24 hrs by Western blot assay; assay type: functional, cell-based; conditions: dose 3-9 µM
MGC-803 [10] = test: Inhibition of cell migration in human MGC-803 cells at 5 uM measured after 48 hrs by wound healing assay based inverted microscopic analysis; assay type: functional
HGC-27 [11] = test: Induction of apoptosis in human HGC-27 cells assessed as viable cells at 6 uM measured after 48 hrs by AnnexinV/FITC staining based flow cytometry method (reference value: 93.18%); assay type: functional; conditions: read-out: Activity
MGC-803 [12] = test: Induction of apoptosis in human MGC-803 cells assessed as early apoptotic cells at 2.5 uM measured after 24 hrs by AnnexinV/FITC staining based flow cytometry method (reference value: 1.3%); assay type: functional
[13] = Cytotoxicity against human GES1 cells assessed as inhibition of cell proliferation measured after 72 hrs by MTT assay; assay type: toxicity, cell-based
MGC-803 [14] = test: Induction of apoptosis in human MGC-803 cells assessed as ROS levels at 5 uM measured after 24 hrs by DCFH-DA staining based flow cytometry assay (reference value: 3.3%); assay type: functional
HGC-27 [15] = test: Induction of apoptosis in human HGC-27 cells assessed as late apoptotic cells at 3 uM measured after 48 hrs by AnnexinV/FITC staining based flow cytometry method (reference value: 1%); assay type: functional
MGC-803 [16] = test: Induction of apoptosis in human MGC-803 cells assessed as necrotic cells at 7.5 uM measured after 24 hrs by AnnexinV/FITC staining based flow cytometry method (reference value: 1.9%); assay type: functional
[17] = target: T1, NEDD8-activating enzyme E1 regulatory subunit (Homo sapiens) (UniProt Q13564); test: Inhibition of NAE-mediated neddylation in human MGC-803 cells assessed as cullin1-Nedd8 adduct formation at 2.5 to 7.5 uM measured after 24 hrs by western blot assay; assay type: cell-based; conditions: dose 2.5-7.5 µM
T1 sequence (whole entry): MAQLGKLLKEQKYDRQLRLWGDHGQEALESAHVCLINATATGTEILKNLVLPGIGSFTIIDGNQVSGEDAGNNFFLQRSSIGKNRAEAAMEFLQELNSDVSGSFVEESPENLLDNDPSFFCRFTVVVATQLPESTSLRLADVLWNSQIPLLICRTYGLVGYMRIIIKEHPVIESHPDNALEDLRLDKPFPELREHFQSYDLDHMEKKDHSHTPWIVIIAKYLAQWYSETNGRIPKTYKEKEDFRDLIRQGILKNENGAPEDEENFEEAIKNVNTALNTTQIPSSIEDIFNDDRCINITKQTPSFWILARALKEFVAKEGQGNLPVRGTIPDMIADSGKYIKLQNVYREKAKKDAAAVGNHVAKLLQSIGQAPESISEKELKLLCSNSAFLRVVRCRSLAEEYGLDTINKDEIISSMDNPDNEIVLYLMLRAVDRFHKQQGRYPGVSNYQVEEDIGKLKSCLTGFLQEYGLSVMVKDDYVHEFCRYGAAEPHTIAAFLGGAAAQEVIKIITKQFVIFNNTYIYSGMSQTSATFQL

MGC-803 [18] = test: Induction of apoptosis in human MGC-803 cells assessed as late apoptotic cells at 5 uM measured after 24 hrs by AnnexinV/FITC staining based flow cytometry method (reference value: 2%); assay type: functional
MGC-803 [19] = test: Induction of apoptosis in human MGC-803 cells assessed as ROS levels at 2.5 uM measured after 24 hrs by DCFH-DA staining based flow cytometry assay (reference value: 3.3%); assay type: functional
MGC-803 [20] = test: Induction of apoptosis in human MGC-803 cells assessed as viable cells at 5 uM measured after 48 hrs by AnnexinV/FITC staining based flow cytometry method (reference value: 97.4%); assay type: functional; conditions: read-out: Activity
[21] = target: T1, NEDD8-activating enzyme E1 regulatory subunit (Homo sapiens); test: Inhibition of NAE-mediated neddylation in human MGC-803 cells assessed as cullin2-Nedd8 adduct formation at 2.5 to 7.5 uM measured after 24 hrs by western blot assay; assay type: cell-based; conditions: dose 2.5-7.5 µM
HGC-27 [22] = test: Induction of apoptosis in human HGC-27 cells assessed as reduction of mitochondrial membrane potential at 3 uM measured after 24 hrs by JC-1 staining based Flowcytometry assay (reference value: 2.4%); assay type: functional; design: scale not given: the % may be the effect or the level left
HGC-27 [23] = test: Induction of apoptosis in human HGC-27 cells assessed as ROS levels at 3 uM measured after 24 hrs by DCFH-DA staining based flow cytometry assay (reference value: 6.8%); assay type: functional
MGC-803 [24] = test: Cell cycle arrest in human MGC-803 cells assessed as accumulation of cells at S phase at 7.5 uM measured after 24 hrs by Flowcytometry assay (reference value: 36.51%); assay type: functional
MGC-803 [25] = test: Cell cycle arrest in human MGC-803 cells assessed as accumulation of cells at G2/M phase at 7.5 uM measured after 24 hrs by Flowcytometry assay (reference value: 13.71%); assay type: functional
MGC-803 [26] = test: Induction of apoptosis in human MGC-803 cells assessed as ROS levels at 7.5 uM measured after 24 hrs by DCFH-DA staining based flow cytometry assay (reference value: 3.3%); assay type: functional
HGC-27 [27] = test: Induction of apoptosis in human HGC-27 cells assessed as late apoptotic cells at 9 uM measured after 24 hrs by AnnexinV/FITC staining based flow cytometry method (reference value: 2.4%); assay type: functional
HGC-27 [28] = test: Induction of apoptosis in human HGC-27 cells assessed as upregulation of Bak at 3 to 9 uM measured after 24 hrs by Western blot assay; assay type: functional, cell-based; conditions: dose 3-9 µM
MGC-803 [29] = test: Induction of apoptosis in human MGC-803 cells assessed as viable cells at 2.5 uM measured after 48 hrs by AnnexinV/FITC staining based flow cytometry method (reference value: 97.4%); assay type: functional; conditions: read-out: Activity

inhibition [17]: Active
inhibition [21]: inactive
SMILES: CCCCCc1ccc(NC(=O)C2CCN(C/C=C/c3ccccc3)CC2)cc1
Activity (MGC-803 [1]): 48.87%
Activity (MGC-803 [2]): 70%
Activity (MGC-803 [3]): 51%
Activity (MGC-803 [4]): 1.7%
Activity (MGC-803 [5]): 44.87%
Activity (HGC-27 [6]): 0%
Activity (HGC-27 [7]): 23.1%
Activity (HGC-27 [8]): 4.6%
Activity (HGC-27 [9]): Dose-Dependent Effect
inhibition at 5 µM (MGC-803 [10]): 40%
viability at 6 µM (HGC-27 [11]): 45.8%
Activity (MGC-803 [12]): 2.1%
IC50 at 72 h [13]: 8.7 µM
Activity (MGC-803 [14]): 5.4%
Activity (HGC-27 [15]): 7%
Activity (MGC-803 [16]): 6.9%
Activity (MGC-803 [18]): 10.9%
Activity (MGC-803 [19]): 4%
viability at 5 µM (MGC-803 [20]): 38.4%
Activity (HGC-27 [22]): 4.4%
Activity (HGC-27 [23]): 11.4%
Activity (MGC-803 [24]): 33.6%
Activity (MGC-803 [25]): 25.94%
Activity (MGC-803 [26]): 22.2%
Activity (HGC-27 [27]): 74%
Activity (HGC-27 [28]): Dose-Dependent Effect
viability at 2.5 µM (MGC-803 [29]): 50.6%
